# Laboratory results taken from a melting point compilation (Tetko et al.; mined from patent text by program, amines drawn as free bases though some values may be those of a salt).
row,melting point [°C],SMILES
1,106 to 108,CSC(=CC(=O)c1ccccc1)CC(=O)c1ccccc1
2,194 to 200,CC(C(=O)O)(c1ccccc1)N1CCC(c2noc3cc(F)ccc23)CC1 (stereo not given)
3,109 to 111,CNC(=O)C(=NOC)c1ccccc1ON=C(C)c1cccc(C)c1
4,119 to 121,CC(C)(C)OC(=O)CN1CC(c2ccccc2)CCC(N=[N+]=[N-])C1=O (stereo not given)
5,79 to 81,CC(C)(C)C(O)C(CCCCOc1ccccc1)n1cncn1 (stereo not given)
6,238 to 240,CC(C)n1cc(-c2ccc(NS(=O)(=O)c3ccccc3)cc2)c2c(N)ncnc21
7,> 300,O=c1[nH]c(-c2c[nH]c3ccccc23)nc2ccc(N3CCCCC3)cc12
8,143 to 144,COC(=O)CC1SC2=Nc3ccccc3CN2C1=O (stereo not given)
9,182 to 183,COC(=O)CS(=O)(=O)N1CC=C(c2ccc(-c3ccccc3)cc2)CC1
10,165 to 167,Cc1noc(C)c1CN1CC2(COc3cc4c(cc32)OCO4)c2ccccc21 (stereo not given)
11,164 to 166,CC(C)n1nc(-c2c(NCCN(C)C)nc(N)nc2-c2ccccc2)ccc1=O
12,131 to 132,O=S(=O)(Nc1ccccc1OCCCN1CCC(OC(c2ccccc2)c2ccccc2)CC1)c1ccccc1
13,159 to 161,Cc1ccc(C(=O)O)cc1OCc1ccccc1
14,170,CCCC1=NN(c2ccc(C(N)=O)cc2)C(=O)C1=CNc1ccccc1CC
15,105,O=C(OCc1ccccc1)N1CCC2(CC1)CN(c1ccc(Cl)c(Cl)c1)C(=O)O2
16,98 to 99,Nc1cccc(Oc2ccc(Oc3cccc(N)c3)cc2)c1
17,224,Cc1nc(C(=O)Nc2cccc(Oc3ccc4nc(NC(=O)C5CC5)cn4n3)c2)c(C)o1
18,92 to 93,CC1(C)OC[C@H](COc2ccc(C(=O)c3ccc([N+](=O)[O-])cc3)cc2)O1
19,300 to 302,COC(=O)c1ccc2c(c1)S(=O)(=O)c1ccccc1NC2=O
20,202 to 204,CCCCc1nc2cccc(C(=O)O)c2n1Cc1ccn2c(C(=O)O)c(-c3ccccc3)nc2c1
21,117 to 118,CC12CCC3c4cc(O)c(OCc5ccccc5)cc4CCC3C1CCC2OCc1ccccc1 (stereo not given)
22,245,CN1C(=O)C2C3Oc4ccccc4OC3=C3C(Oc4cccnc4N3C(=O)Oc3ccccc3)C2C1=O (stereo not given)
23,206 to 210,Cc1cc(S(N)(=O)=O)ccc1N1CN(c2ccccc2)CC1=O
24,168 to 171,CC(C)(C)OC(=O)N1CCC(c2ccc3oc(-c4ccc(S(C)(=O)=O)cc4F)nc3c2)CC1
25,107 to 110,CC(C)c1cc(C(C)C)c(OS(=O)(=O)CC(=O)N(Cc2ccccc2)Cc2ccccc2)c(C(C)C)c1
26,197 to 199,CN1C2CCCC1CC(NC(=O)c1cccc3oc(-c4ccc(F)cc4)nc13)C2 (stereo not given)
27,149 to 152,NC=C1C(=O)c2ccccc2OC1c1ccccc1 (stereo not given)
28,130 to 133,O=C(O)C1CC(=C2CCCN(c3ccccc3)C2=O)c2ccc(Cl)cc2N1 (stereo not given)
29,149 to 150,COC(=O)c1cc(C(=O)N2COCC2(C)C)c2cc(Cc3ccc(F)cc3)cnc2c1O

# The remaining lines, values behind:
row,SMILES,melting point [°C]
1,CCC(=O)Oc1n[nH]c(=O)c2nc3cc(Cl)ccc3c(O)c12,275 to 278
2,Cc1cc(CCCOc2c(C)cc(-c3noc(C(N)=O)n3)cc2C)on1,177 to 178
3,CCCCCCCCCCCCN1C(C)(C)CC(O)CC1(C)C,41 to 42
4,CC1(c2ccc(O)cc2)CC1(Cl)Cl (stereo not given),125 to 126
5,Cc1c(C)c2c(c(C)c1N)C(c1ccc(C(C)C)cc1)CO2 (stereo not given),171 to 173
6,CC(S)C(=O)NCCc1ccccc1 (stereo not given),78 to 79
7,Cc1cc(-n2ccnc2)c2cccc(OCc3c(Cl)ccc(S(=O)(=O)N4CCCC4C(=O)NCC4CCN(C(=O)CC(=O)OC(C)(C)C)CC4)c3Cl)c2n1 (stereo not given),101
8,O=C(CBr)c1cc2ccccc2[nH]1,125 to 130
9,CCOC(=O)c1cc2c(C(F)(F)F)coc2nc1C(=O)OCC,50 to 55
10,O=C1NC(=O)C2(CC(Br)c3ccccc32)N1 (stereo not given),58 to 65
11,CCCCCCCCCCCc1cccc(Oc2c(N)nc(N)nc2CC)c1,97 to 99
12,CCOC(=O)C(C#N)=NC(=CN1CCOCC1)CC,127 to 128
13,CON(Cc1ccc(NC(C)=O)cc1)C(=O)C1=C(O)C(=O)N(C)C1,110
14,N#CC1CN1C(=O)NC(=O)c1ccc2ccccc2c1 (stereo not given),164 to 166
15,O=C(CCCCCN1CCN(c2cccc(C(F)(F)F)c2)CC1)N1Cc2ccc(C3=NCCO3)cc2C1,129
16,COc1cc(/C=C/C(=O)CC(=O)c2ccc(I)cc2)ccc1O,139 to 141
17,Cc1cnc2c(c1)C(=O)c1nccc(Br)c1C2=O,> 200
18,Cc1nn(-c2c(Cl)cc(C(F)(F)F)cc2Cl)c(N)c1SC(C)(F)F,123 to 125
19,C=CCc1c(OCOC)cc(OCOC)c(C(=O)C=Cc2ccc(OCOC)cc2)c1O,68 to 69
20,CN(C)C(=O)C1=C(C(=O)Nc2ccc(Cl)cc2)CCCC1,125
21,CC1CCc2c(C#N)c(F)cc3c(=O)c(C(=O)O)cn1c23 (stereo not given),300

row,SMILES,melting point [°C]
1,CC(C)c1ccc(S(=O)(=O)Nc2ccc(OC(F)(F)F)cc2I)cc1,72
2,CCOC(=O)c1cc(C(=O)NC)nc(C(=O)NC)c1N,185 to 186
3,N#Cc1ccc(C(=O)N2CCC[C@H]2C(=O)O)cc1,80 to 85
4,Cc1ccccc1C(=O)c1nc[nH]c1C,165 to 166
5,C=CC(=O)OC(C#N)Cc1cccc(Cl)c1 (stereo not given),100 to 101
6,CCCCCc1ccc(Oc2cccc(C=C3SC(=S)NC3=O)c2)cc1,125 to 127
7,CCCOc1ccc(CC(=O)NCCc2ccc(OCC)c(OCC)c2)cc1OCCC,99
8,COc1cc(OC)nc(NC(=O)NS(=O)(=O)c2ncccc2C(O)CF)n1 (stereo not given),119 to 120
9,CC(C)CCN1C(=O)C(NC(=O)Oc2cccc(N(C)C)c2)C(=O)N(c2ccccc2)c2cc(Cl)c(Cl)cc21 (stereo not given),163 to 164
10,CC(=O)SCC(C(=O)NC(Cc1occ2ccccc12)C(=O)O)C(F)(F)F (stereo not given),147 to 149
11,CSc1c(O[C@@H]2CCC[C@H](N)C2)ccc2[nH]ncc12 (relative stereo),112 to 113
12,CCCCCCCCOc1ccc(-c2ncc(Br)cn2)cc1,95
13,COC(=O)CCC(CCCCNS(=O)(=O)c1ccc(Cl)cc1)CCCc1cccnc1 (stereo not given),81 to 82
14,COC[C@H]1CN(c2ccc3nc([C@@H](O)CCC#N)sc3c2)C(=O)O1,74 to 75
15,O=C(Cl)CCCCCCCBr,110 to 112
16,Cc1cc(-c2c(F)cc3c(=O)c(C(=O)O)cn4c3c2OC[C@@H]4C)cc(C)n1,305 to 308
17,O=C=Nc1cc(OCC(F)(F)F)ccc1OCC(F)(F)F,50 to 52
18,CCOC(=O)C=N[C@@H]1c2cc(C#N)ccc2OC(C)(C)[C@H]1O (relative stereo),98 to 100
19,Cc1ccc(C(=O)NCCN(C)C)cc1-n1c(C)cc(OCc2ccc(F)cc2CNC(=O)Nc2cc(C(C)(C)C)nn2-c2ccc(Cl)c(O)c2)c(Cl)c1=O,177 to 178
20,CN1C2CCC1CC(c1n[nH]c3ccccc13)C2 (stereo not given),191 to 192
